Assay results taken from patent US11883526B2 (priority 2019, dated 2024).

Columns and labels:
[1] = system: elderly subjects with TRD; type: in vivo, human; conditions: each dosing day
Source text: The Modified Observer's Assessment of Alertness/Sedation (MOAA/S) was used to measure treatment-emergent sedation with correlation to levels of sedation defined by the American Society of Anesthesiologists (ASA) continuum. The MOAA/S scores range from 0 (No response to painful stimulus; corresponds to ASA continuum for general anesthesia) to 5 (Readily responds to name spoken in normal tone [awake]; corresponds to ASA continuum for minimal sedation). The proportion of subjects with sedation was <4% for the esketamine group for each dosing day.

subjects with TRD = conditions: human, in vivo, other: intranasal
Description: The Clinician Administered Dissociative States Scale (CADSS) was measured prior to the start of each dose, at 40 minutes, and 1.5 hours postdose.

CN[C@]1(c2ccccc2Cl)CCCCC1=O [esketamine, (S)-2-(2-chlorophenyl)-2-(methylamino)cyclohexanone]
proportion of subjects with sedation (post dose MOAA/S score ≤3) [1]: < 4% | dissociative and perceptual change symptoms (CADSS) resolved by (subjects with TRD): ≤ 1.5 hours post dose
